Earlier results in patent publication US7842677B2, “Synthetic ganglioside derivatives and compositions thereof” (Seneb Biosciences, Inc., priority 2001, dated 2010).

System: murine neuroblastoma cells

ganglioside GM3
growth of neuroblastoma cells (in words): inhibit the growth
